Source: patent publication US20110200992A1, “Biological Compositions, Articles and Methods for Monitoring Sterilization Processes” (priority 2008, published 2011)

System: spores of Gb stearothermophilus
Assay: Fluorescence intensity vs. time of spore suspension with dye, with or without nutrients (Example 1)
Assay type: cell-based
Details: Acridine Orange 6.6 μM, ex 485 nm, em 530 nm, 50° C.; for Fluorescence Intensity of Spore Suspension with Dye: no nutrients
Protocol: Spore suspensions of Gb. stearothermophilus (also known as Bacillus stearothermophilus) were prepared by known methods as described in Example 1 of U.S. Pat. No. 5,418,167 ([…] et al.). Modifications of these methods and alternative methods known to those skilled in the art may also be used for preparing these suspensions. Representative cell-permeant dyes from the following classes: green fluorescent nucleic acid stains, red fluorescent nucleic acid stains, and Acridine Orange were tested with spores of Gb stearothermophilus. Specifically, 100 microliters of the spore suspension described above were combined with 200 microlitres of a 1:5000 dilution of the dye with Sterile Water For Irrigation (Baxter, Deerfield, Ill.) or with nutrients glucose, fructose, and potassium chloride in water (1 mg/ml, 1 mg/ml, and 3.3 mgs/ml, respectively), 0.2 M valine, 0.04 M isoleucine, 0.2 M methionine, 4 mg/ml inosine, and 0.4 M alanine. The fluorescence intensity of each of the resulting suspensions was monitored at an incubation temperature of 50° C., using the following dyes at the concentrations and excitation and emission wavelengths indicated below: SYTO 24: 1.0 μM (micromolar); excitation at 485 nm, emission at 530 nm; Acridine Orange: 6.6 μM; excitation at 485 nm, emission at 530 nm; SYTO 64: 1.0 μM; excitation at 530 nm, emission at 620 nm. The dyes are available from Invitrogen, (Carlsbad, Calif.). Fluorescence was monitored in a Biotek FL600 fluorimeter or Biotek Synergy 4 plate reader (Biotek, Winooski, Vt.).

CN(C)c1ccc2cc3ccc(N(C)C)cc3nc2c1 [Acridine Orange]
Fluorescence Intensity of Spore Suspension with Dye (0 min): 2005
Fluorescence Intensity of Spore Suspension with Dye (10 min): 2665
Fluorescence Intensity of Spore Suspension with Dye (20 min): 4069
Fluorescence Intensity of Spore Suspension with Dye (30 min): 5655
Fluorescence Intensity of Spore Suspension with Dye (40 min): 7091
Fluorescence Intensity of Spore Suspension with Dye and Nutrients (0 min): 2687
Fluorescence Intensity of Spore Suspension with Dye and Nutrients (10 min): 2777
Fluorescence Intensity of Spore Suspension with Dye and Nutrients (20 min): 4241
Fluorescence Intensity of Spore Suspension with Dye and Nutrients (30 min): 7842
Fluorescence Intensity of Spore Suspension with Dye and Nutrients (40 min): 11708
